pIC50: −log10 of the molar value.
How the values were obtained:
Format in all cases: binding
[1] = target: T1, Recombinant human integrin ανβ5 (Homo sapiens, UniProt P06756+P18084); experiment: Solid Phase Receptor Assay (SPRA) for ανβ5 function; settings: plate-bound human vitronectin; read-out: αvβ5 SPRA IC50
T1 construct: purchased R&D Systems 2528-AV
Method: D. Solid Phase Receptor Assay (SPRA) for ανβ5 Function
Wells were washed 3 times with 150 μL TBS+ and then 150 μL of blocking buffer (TBS+ with 1% bovine serum albumin, Sigma A7906) was added. The plate was incubated for 1 hr at 37° C. and then washed 3× with TBS+ buffer. […] Compounds were diluted to 20 μM and then 1 μL was added to each well of the plate according to a standard template with each sample repeated in triplicate. After incubation for two hours at room temperature, the plate was washed 3× with 150 μL of TBS+ buffer. To each well, 50 μl of biotinylated anti-αν antibody (R&D Systems, BAF1219) at 0.5 μg/mL in TBS+/0.1% BSA at 0.5 μg/mL were added and the plate covered and incubated for 1 hr at room temperature. After washing the plate 3 with 150 μL of TBS+ buffer, 50 μL of streptavidin-conjugated horseradish peroxidase (R&D Systems, DY998) diluted in TBS+ blocking buffer were added to the wells and the plate incubated for 20 min at room temperature. The plate was washed 3× with TBS+ buffer followed by 50 μL of TMB substrate (Sigma T4444) added to each well in the dark and the plate incubated for 5 min at room temperature. 25 μL of 1.0 M phosphoric acid was added as a stop solution and the plates were read at 450 nm using a Spectramax plate reader.

[2] = target: T2, Recombinant human integrin ανβ6 (Homo sapiens, UniProt P06756+P18564); experiment: Solid Phase Receptor Assay (SPRA) for ανβ6 function; settings: plate-bound human LAP; read-out: αvβ6 SPRA IC50
T2 construct: purchased R&D Systems 3817-AV
Method: E. Solid Phase Receptor Assay (SPRA) for ανβ6 Function
Wells were washed 3 times with 150 μL TBS+, and then 150 μL of blocking buffer (TBS+ with 1% bovine serum albumin, Sigma A7906) was added. The plate was incubated for 1 hr at 37° C., and then washed 3× with TBS+ buffer. […] Compounds were diluted to 20 μM and then 1 μL was added to each well of the plate according to a standard template with each sample repeated in triplicate. After incubation for two hours at room temperature, the plate was washed 3× with 150 μL of TBS+ buffer. To each well, 50 μL of biotinylated anti-αν antibody (R&D Systems, BAF1219) at 0.5 μg/mL in TBS+/0.1% BSA were added and the plate was covered and incubated for 1 hr at room temperature. After washing the plate 3× with 150 μL of TBS+ buffer, 50 μL of streptavidin-conjugated horseradish peroxidase (R&D Systems, DY998) diluted in TBS+ blocking buffer were added to the wells and the plate incubated for 20 min at room temperature. The plate was washed 3× with TBS+ buffer followed by 50 μL of TMB substrate (Sigma T4444) added to each well in the dark and the plate incubated for 10 min at room temperature. 25 μL of 1.0 M phosphoric acid was added as a stop solution and the plates were read at 450 nm using a Spectramax plate reader.

[3] = target: T3, Recombinant human integrin ανβ1 (Homo sapiens, UniProt P05556+P06756); experiment: Solid Phase Receptor Assay (SPRA) for ανβ1 function; settings: plate-bound human fibronectin; read-out: αvβ1 SPRA IC50
T3 construct: purchased R&D Systems 6579-AV
Method: B. Solid Phase Receptor Assay (SPRA) for ανβ1 Function
Wells were washed 3 times with 150 μL TBS+ and then 150 μL of blocking buffer (TBS+ with 1% bovine serum albumin, Sigma A7906) was added. The plate was incubated for 1 hr at 37° C. and then washed 3× with TBS+ buffer. […] Compounds were diluted to 20 μM and 1 μL was added to each well of the plate according to a standard template with each sample repeated in triplicate. After incubation for two hours at room temperature, the plate was washed 3 with 150 μL of TBS+ buffer. To each well, 50 μL of biotinylated anti-αν antibody (R&D Systems, BAF1219) at 1 μg/mL in TBS+/0.1% BSA were added and the plate covered and incubated for 1 hr at room temperature. After washing the plate 3× with 150 μL of TBS+ buffer, 50 μL of streptavidin-conjugated horseradish peroxidase (R&D Systems, DY998) diluted in TBS+ blocking buffer were added to the wells and the plate incubated for 20 min at room temperature. The plate was washed 3× with TBS+ buffer followed by 50 μL of TMB substrate (Sigma, T4444) added to each well in the dark and the plate incubated for 25 min at room temperature. 25 μL of 1.0 M phosphoric acid was added as a stop solution and the plates were read at 450 nm using a Spectramax plate reader.

[4] = target: T4, Recombinant human integrin ανβ8 (Homo sapiens, UniProt P06756+P26012); experiment: Solid Phase Receptor Assay (SPRA) for ανβ8 function; settings: plate-bound human LAP; read-out: αvβ8 SPRA IC50
T4 construct: purchased R&D Systems 4135-AV
Method: F. Solid Phase Receptor Assay (SPRA) for ανβ8 Function
Wells were washed 3 times with 150 μL TBS+ and then 150 μL of blocking buffer (TBS+ with 1% bovine serum albumin, Sigma A7906) was added. The plate was incubated for 1 hr at 37° C. and then washed 3× with TBS+. […] Compounds were diluted to 20 μM and 1 μL was added to each well of the plate according to a standard template with each sample repeated in triplicate. After incubation for two hours at room temperature, the plate was washed 3× with 150 μL of TBS+. To each well, 50 μL of biotinylated anti-αν antibody (R&D Systems, BAF1219) at 1 μg/mL in TBS+/0.1% BSA were added and the plate was covered and incubated for 1 hr at room temperature. After washing the plate 3× with 150 μL. of TBS+ buffer, 50 μL of streptavidin-conjugated horseradish peroxidase (R&D Systems, DY998) diluted in TBS+ blocking buffer were added to the wells and the plate incubated for 20 min at room temperature. The plate was washed 3× with TBS+ followed by 50 μL of TMB substrate (Sigma T4444) added to each well in the dark and the plate incubated for 10 min at room temperature. 25 μL of 1.0 M phosphoric acid was added as a stop solution and the plates were read at 450 nm using a Spectramax plate reader.

T1 sequence (P06756 31-992 limits assumed): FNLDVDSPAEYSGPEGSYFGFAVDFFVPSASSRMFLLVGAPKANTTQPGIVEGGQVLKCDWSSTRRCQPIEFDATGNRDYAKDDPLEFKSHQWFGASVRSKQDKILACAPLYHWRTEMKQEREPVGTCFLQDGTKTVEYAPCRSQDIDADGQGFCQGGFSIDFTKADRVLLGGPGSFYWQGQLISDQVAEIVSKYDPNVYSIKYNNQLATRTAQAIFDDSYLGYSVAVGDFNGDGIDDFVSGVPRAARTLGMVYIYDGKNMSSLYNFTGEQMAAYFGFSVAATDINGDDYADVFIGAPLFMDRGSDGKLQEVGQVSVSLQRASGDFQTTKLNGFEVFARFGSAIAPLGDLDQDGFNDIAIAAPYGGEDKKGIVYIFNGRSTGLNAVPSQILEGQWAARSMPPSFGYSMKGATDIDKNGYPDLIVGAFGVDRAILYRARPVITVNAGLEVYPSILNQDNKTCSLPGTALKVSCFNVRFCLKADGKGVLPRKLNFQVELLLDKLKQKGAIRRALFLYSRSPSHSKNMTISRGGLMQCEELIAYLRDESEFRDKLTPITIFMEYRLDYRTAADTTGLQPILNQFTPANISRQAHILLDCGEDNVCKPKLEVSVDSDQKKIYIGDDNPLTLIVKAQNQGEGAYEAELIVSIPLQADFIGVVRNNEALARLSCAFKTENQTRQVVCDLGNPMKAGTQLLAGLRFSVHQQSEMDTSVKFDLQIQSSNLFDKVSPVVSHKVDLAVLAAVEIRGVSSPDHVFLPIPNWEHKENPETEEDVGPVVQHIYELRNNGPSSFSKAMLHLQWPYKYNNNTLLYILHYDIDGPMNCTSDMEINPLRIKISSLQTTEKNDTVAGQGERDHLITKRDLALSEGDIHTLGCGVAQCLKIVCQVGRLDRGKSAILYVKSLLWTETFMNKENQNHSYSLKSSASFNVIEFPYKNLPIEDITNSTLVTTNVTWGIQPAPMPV
T1 sequence (P18084 24-719 limits assumed): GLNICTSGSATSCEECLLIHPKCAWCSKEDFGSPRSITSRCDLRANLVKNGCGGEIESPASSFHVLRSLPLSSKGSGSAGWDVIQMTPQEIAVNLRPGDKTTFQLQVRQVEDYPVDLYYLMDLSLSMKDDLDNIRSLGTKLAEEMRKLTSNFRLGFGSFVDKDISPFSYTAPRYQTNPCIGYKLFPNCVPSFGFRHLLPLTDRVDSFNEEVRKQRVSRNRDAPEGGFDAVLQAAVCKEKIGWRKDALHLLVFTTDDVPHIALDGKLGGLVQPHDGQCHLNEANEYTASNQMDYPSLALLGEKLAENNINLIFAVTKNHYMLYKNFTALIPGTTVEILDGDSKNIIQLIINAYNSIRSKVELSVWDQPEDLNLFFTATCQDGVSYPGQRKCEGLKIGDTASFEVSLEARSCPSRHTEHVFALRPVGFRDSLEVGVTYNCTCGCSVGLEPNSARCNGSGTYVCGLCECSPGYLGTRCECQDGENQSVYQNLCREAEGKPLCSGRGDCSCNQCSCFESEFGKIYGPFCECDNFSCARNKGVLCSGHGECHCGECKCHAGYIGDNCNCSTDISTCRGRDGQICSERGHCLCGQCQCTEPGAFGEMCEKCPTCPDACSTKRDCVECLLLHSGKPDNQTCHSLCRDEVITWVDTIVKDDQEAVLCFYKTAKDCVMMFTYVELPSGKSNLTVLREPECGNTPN
T4 sequence (P06756 31-992 limits assumed): as the sequence (P06756 31-992 limits assumed) above
T4 sequence (P26012 43-684 limits assumed): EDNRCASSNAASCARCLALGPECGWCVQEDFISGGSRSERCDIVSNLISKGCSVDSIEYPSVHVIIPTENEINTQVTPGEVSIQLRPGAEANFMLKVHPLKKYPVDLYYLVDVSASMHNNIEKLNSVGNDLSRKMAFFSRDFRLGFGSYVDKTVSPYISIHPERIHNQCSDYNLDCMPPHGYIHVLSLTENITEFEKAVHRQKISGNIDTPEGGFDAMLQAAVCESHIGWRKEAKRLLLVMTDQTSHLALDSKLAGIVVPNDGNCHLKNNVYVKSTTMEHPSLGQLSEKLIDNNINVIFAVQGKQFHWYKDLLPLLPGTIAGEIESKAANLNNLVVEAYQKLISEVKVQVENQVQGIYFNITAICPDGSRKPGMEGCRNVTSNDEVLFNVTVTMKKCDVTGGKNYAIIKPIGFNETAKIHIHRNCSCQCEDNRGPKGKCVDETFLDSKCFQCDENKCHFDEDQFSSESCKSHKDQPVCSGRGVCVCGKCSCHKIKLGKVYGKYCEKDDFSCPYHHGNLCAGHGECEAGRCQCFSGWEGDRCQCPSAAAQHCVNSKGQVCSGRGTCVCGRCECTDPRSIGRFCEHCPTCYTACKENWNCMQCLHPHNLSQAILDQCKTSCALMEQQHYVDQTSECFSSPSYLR
T3 sequence (P06756 31-992 limits assumed): as the sequence (P06756 31-992 limits assumed) above
T3 sequence (P05556 21-728 limits assumed): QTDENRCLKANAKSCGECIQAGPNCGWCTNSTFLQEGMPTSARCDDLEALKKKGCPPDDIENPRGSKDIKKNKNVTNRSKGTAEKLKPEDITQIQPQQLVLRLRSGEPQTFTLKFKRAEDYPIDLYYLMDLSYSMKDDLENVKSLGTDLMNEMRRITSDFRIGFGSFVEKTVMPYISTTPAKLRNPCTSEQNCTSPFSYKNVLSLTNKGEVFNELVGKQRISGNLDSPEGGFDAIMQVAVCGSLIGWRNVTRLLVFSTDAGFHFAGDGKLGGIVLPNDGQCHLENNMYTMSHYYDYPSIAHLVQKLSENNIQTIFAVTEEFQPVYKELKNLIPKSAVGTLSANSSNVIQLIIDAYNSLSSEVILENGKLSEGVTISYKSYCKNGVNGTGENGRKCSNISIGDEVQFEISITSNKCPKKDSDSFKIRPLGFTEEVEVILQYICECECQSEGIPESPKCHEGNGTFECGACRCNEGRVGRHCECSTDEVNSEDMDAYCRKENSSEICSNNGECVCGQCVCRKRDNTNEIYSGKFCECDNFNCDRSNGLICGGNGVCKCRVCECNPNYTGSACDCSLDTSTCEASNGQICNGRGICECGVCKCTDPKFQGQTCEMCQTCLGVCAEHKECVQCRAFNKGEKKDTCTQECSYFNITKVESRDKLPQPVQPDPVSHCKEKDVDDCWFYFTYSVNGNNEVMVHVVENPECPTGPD
T2 sequence (P06756 31-992 limits assumed): as the sequence (P06756 31-992 limits assumed) above
T2 sequence (P18564 22-707 limits assumed): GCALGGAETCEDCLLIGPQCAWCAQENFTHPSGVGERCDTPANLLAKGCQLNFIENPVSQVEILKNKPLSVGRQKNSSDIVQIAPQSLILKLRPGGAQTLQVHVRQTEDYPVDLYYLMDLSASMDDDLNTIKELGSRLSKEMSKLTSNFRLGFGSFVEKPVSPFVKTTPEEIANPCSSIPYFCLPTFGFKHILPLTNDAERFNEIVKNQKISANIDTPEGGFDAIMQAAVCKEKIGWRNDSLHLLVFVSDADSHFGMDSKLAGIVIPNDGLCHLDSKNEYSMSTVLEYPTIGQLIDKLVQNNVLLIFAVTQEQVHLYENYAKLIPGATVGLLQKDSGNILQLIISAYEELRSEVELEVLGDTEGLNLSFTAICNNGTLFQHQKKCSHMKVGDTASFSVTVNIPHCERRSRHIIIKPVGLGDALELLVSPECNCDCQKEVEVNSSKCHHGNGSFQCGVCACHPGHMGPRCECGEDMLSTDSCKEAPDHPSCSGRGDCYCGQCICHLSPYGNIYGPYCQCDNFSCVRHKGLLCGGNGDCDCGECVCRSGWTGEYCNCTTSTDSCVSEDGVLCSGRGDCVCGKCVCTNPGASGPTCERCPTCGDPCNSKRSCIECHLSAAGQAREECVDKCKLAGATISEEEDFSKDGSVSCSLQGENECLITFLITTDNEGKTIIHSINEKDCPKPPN

Structure (SMILES)	pIC50 [1]	pIC50 [2]	pIC50 [3]	pIC50 [4]
Cn1nc(CC(CC(=O)O)c2cc(C(C)(C)C)cc(C(C)(C)C)c2)cc1OCCc1ccc2c(n1)NCCC2 (stereo not drawn) [Example 18, 3-(3,5-di-tert-butylphenyl)-4-[1-methyl-5-[2-(5,6,7,8-tetrahydro-1,8-naphthyridin-2-yl)ethoxyl]pyrazol-3-yl]butanoic Acid]	6.74	6.21	8.85	7.07
Cn1nc(CC(CC(=O)O)c2cc(Br)cc(C3(C(F)F)CC3)c2)cc1OCCc1ccc2c(n1)NCCC2 (stereo not drawn) [Example 19, 3-(3-bromo-5-(1-(difluoromethyl)cyclopropyl)phenyl)-4-(1-methyl-5-(2-(5,6,7,8-tetrahydro-1,8-naphthyridin-2-yl)ethoxy)-1H-pyrazol-3-yl)butanoic Acid]	8.92	7.35	8.20	8.07
Cn1nc(CC(CC(=O)O)c2cc(C#N)cc(C3(C(F)F)CC3)c2)cc1OCCc1ccc2c(n1)NCCC2 (stereo not drawn) [Example 20, 3-(3-cyano-5-(1-(difluoromethyl)cyclopropyl)phenyl)-4-(1-methyl-5-(2-(5,6,7,8-tetrahydro-1,8-naphthyridin-2-yl)ethoxy)-1H-pyrazol-3-yl)butanoic Acid]	9.70	7.77	8.41	7.85
Cn1nc(CC(CC(=O)O)c2cc(F)cc(C3(C(F)F)CC3)c2)cc1OCCc1ccc2c(n1)NCCC2 (stereo not drawn) [Example 21, 3-(3-(1-(difluoromethyl)cyclopropyl)-5-fluorophenyl)-4-(1-methyl-5-(2-(5,6,7,8-tetrahydro-1,8-naphthyridin-2-yl)ethoxy)-1H-pyrazol-3-yl)butanoic Acid]	9.70	7.33	8.43	7.28
Cn1nc(CC(CC(=O)O)c2cc(Cl)cc(C3(C(F)F)CC3)c2)cc1OCCc1ccc2c(n1)NCCC2 (stereo not drawn) [Example 22, 3-(3-chloro-5-(1-(difluoromethyl)cyclopropyl)phenyl)-4-(1-methyl-5-(2-(5,6,7,8-tetrahydro-1,8-naphthyridin-2-yl)ethoxy)-1H-pyrazol-3-yl)butanoic Acid]	9.22	7.59	8.66	7.77
Cn1nc(CC(CC(=O)O)c2cc(C(F)(F)F)cc(C3(C(F)F)CC3)c2)cc1OCCc1ccc2c(n1)NCCC2 (stereo not drawn) [Example 23, 3-(3-(1-(difluoromethyl)cyclopropyl)-5-(trifluoromethyl)phenyl)-4-(1-methyl-5-(2-(5,6,7,8-tetrahydro-1,8-naphthyridin-2-yl)ethoxy)-1H-pyrazol-3-yl)butanoic Acid]	8.19	7.42	8.42	8.10
Cn1nc(CC(CC(=O)O)c2cc(F)cc(C(C)(C)C(F)(F)F)c2)cc1OCCc1ccc2c(n1)NCCC2 (stereo not drawn) [Example 24, 3-(3-fluoro-5-(1,1,1-trifluoro-2-methylpropan-2-yl)phenyl)-4-(1-methyl-5-(2-(5,6,7,8-tetrahydro-1,8-naphthyridin-2-yl)ethoxy)-1H-pyrazol-3-yl)butanoic Acid]	9.70	6.96	8.36	7.05
Cn1nc(CC(CC(=O)O)c2cc(C(F)(F)F)cc(C(C)(C)C(F)(F)F)c2)cc1OCCc1ccc2c(n1)NCCC2 (stereo not drawn) [Example 25, 4-[1-methyl-5-[2-(5,6,7,8-tetrahydro-1,8-naphthyridin-2-yl)ethoxy]pyrazol-3-yl]-3-[3-(2,2,2-trifluoro-1,1-dimethylethyl)-5-(trifluoromethyl)phenyl]butanoic Acid]	8.54	7.60	8.51	7.92
Cn1nc(CC(CC(=O)O)c2cc(Br)cc(C(C)(C)C(F)(F)F)c2)cc1OCCc1ccc2c(n1)NCCC2 (stereo not drawn) [Example 26, 3-[3-bromo-5-(2,2,2-trifluoro-1,1-dimethyl-ethyl)phenyl]-4-[1-methyl-5-[2-(5,6,7,8-tetrahydro-1,8-naphthyridin-2-yl)ethoxy]pyrazol-3-yl]butanoic Acid]	8.74	7.35	8.17	8.03
